We go through four compounds from BindingDB's records for PubMed 10411588 (The University of Calgary, 1999).

Each structure is given as a SMILES string. pKi: −log10 of the molar value. Where a SMILES comes first, the peptide text is derived from it.

The target in the assay is T1, Proteinase-activated receptor 2 (Rattus norvegicus, UniProt Q63645).
T1 sequence (Q63645 whole entry): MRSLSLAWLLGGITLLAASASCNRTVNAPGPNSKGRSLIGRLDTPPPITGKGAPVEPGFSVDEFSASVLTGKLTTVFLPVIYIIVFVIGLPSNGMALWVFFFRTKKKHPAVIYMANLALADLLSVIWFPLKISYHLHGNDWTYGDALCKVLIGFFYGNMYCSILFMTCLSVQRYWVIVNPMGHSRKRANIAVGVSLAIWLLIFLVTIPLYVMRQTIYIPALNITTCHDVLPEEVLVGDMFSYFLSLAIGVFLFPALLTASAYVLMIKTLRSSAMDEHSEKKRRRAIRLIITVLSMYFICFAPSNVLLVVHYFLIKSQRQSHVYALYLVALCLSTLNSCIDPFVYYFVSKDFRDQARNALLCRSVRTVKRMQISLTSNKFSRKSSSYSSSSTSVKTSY
Usually pKi stands for −log10 of the Ki, conventionally taken in molar units. The compound `CC[C@H](C)[C@H](NC(=O)[C@H](CC(C)C)NC(=O)C=Cc1ccccc1)C(=O)NCC(=O)N[C@@H](CCCNC(=N)N)C(=O)N[C@@H](CC(C)C)C(=O)N[C@@H](CCCN)C(N)=O` [trans-cinnamoyl-LIGRLO-NH2] (HELM PEPTIDE1{[O=C(C=Cc1ccccc1)[*:2]].L.I.G.R.L.[Orn].[am]}$$$$V2.0) gave a pKi of 6.59.

`CC(C)C[C@H](NC(=O)[C@H](CC(C)C)NC(=O)[C@H](Cc1ccccc1)NC(=O)[C@@H](N)CO)C(=O)N[C@@H](CCCN=C(N)N)C(=O)O` [SFLLR-OH] showed a pKi below 5.00.

The compound `CC[C@H](C)[C@H](NC(=O)[C@H](CC(C)C)NC(=O)[C@@H](N)CO)C(=O)NCC(=O)N[C@@H](CCCNC(=N)N)C(=O)N[C@@H](CC(C)C)C(N)=O` [CAS_171436-38-7] (H-SLIGRL-NH2) had a pKi of 6.59.

For the compound `CC(C)C[C@H](NC(=O)[C@H](CC(C)C)NC(=O)[C@H](Cc1ccccc1)NC(=O)[C@@H](N)CO)C(=O)N[C@@H](CCCN=C(N)N)C(N)=O` [SFLLR-NH2], the pKi is 5.64.
